Measured values as given in patent US7265097B2, “Methods of drug delivery using sulphated chitinous polymers” (Chitogenics, Inc., priority 2002, dated 2007).
Each block holds one substance with its values, some of them ahead of it.

Tests used:
[1] = design: species or system rats; settings: rat, in vivo
Protocol: The effect of S-NOCCs (N-sulphated N,O-carboxymethyl chitosans) as primary carriers in vivo was tested using rats. Male Wistar rats (SPF status, approximately 250 g) were obtained from Charles River (NL). The animals were fasted for 16 hours before administration with free access to water. The animals were anesthetized with Hypnorm (fentanyl citrate) and Dormicum (midazolam). The body temperature of the rats was kept at 36-37° C. and was monitored throughout the experiment.
Reviparin LMWH (Reviparin, Knoll, 108 Anti-XaU/mg) solution was prepared in physiological saline at 625 anti Xa U/ml.
S-NOCC was tested at two viscosities 40 and 60 cps (S-NOCC40 and S-NOCC60), representing a lower and higher molecular weight chitinous polymer respectively. The S-NOCCs were dissolved at 3% (w/v) in the reviparin solution to form a viscous gel.
In order to administer the LMWH formulations, a thin Teflon tube (˜1 mm i.d.) was used for the control (no polymer). In order to administer the S-NOCC formulations, a polypropylene tube with i.d. ˜3 mm was used to facilitate the viscous gels for their administration. Both tubes were connected to a syringe.
The abdomen of the animals was opened by an incision and the stomach was moved towards the incision point. A small incision at the stomach was made to allow each tube to be guided via the pylorus to the beginning of the duodenum (first 2-3 cm.). Formulation were administered slowly over 5 min and at +/− 2 ml normalized for the body weight of each animal to assure administration of 5000 Anti-Xa U/kg.
Blood samples, ˜225 μl, were collected from the tail vein capillaries (after incision) in Eppendorf vials containing 25 μl sodium citrate 3.8%. The samples were centrifuged at 13000 rpm for 20 min.
Analysis of samples was performed using the Chromostrate heparin Anti-Xa assay (Organon Teknika, NL). […] The release of pNA was measured by an end-point method at 405 nm in an EL808 ultra microplate reader (Biotek Instruments Inc.). […]

[2] = system: Caco-2 cells; assay: TEER of Caco-2 cells treated with sulphated chitinous polymers; type: cell-based
Protocol: The Caco-2 intestinal epithelial cells used in this example form apically tight junctions that seal the paracellular pathways. Disruption of the tight junctions' barrier leads to increased paracellular permeability of hydrophilic drugs that are poorly absorbed across the intestine. The integrity of the tight junctions can be determined by measuring decreases in the transepithelial electrical resistance (TEER) when the tight junctions are opened.
Caco-2 cell cultures were seeded initially from cryovials (stored in liquid nitrogen) to flasks and treated with trypsin. After trypsin treatment, cells were seeded on the Costar Transwell filters (24-well plates, Costar Europe, Badhoevedorp, The Netherlands) at a seeding density of 10^4 cells/cm^2. Dulbecco's Modified Eagle's Medium (DMEM, Sigma, Bornem; Belgium; pH=7.4), supplemented with 1% nonessential amino acids, 10%, fetal calf serum (Hyclone, Greiner, The Netherlands), benzyl-penicillin G (160 U/ml) and streptomycin sulfate (100 μg/ml) (Sigma) was used as culture medium, and was added to both the donor and the acceptor compartment. […]
S-OCC(N-sulphated O-carboxymethyl chitosan), S-NOCC(N-sulphated N,O-carboxymethyl chitosan), and S-SAN (N-sulphated chitosan) were applied on the Caco-2 cell cultures and TEER was measured for 4 hours. […] The TEER was also recorded at 24 hrs after application to investigate the viability of the monolayers.

absorption of the LMWH (plasma anti-Xa level, relative to antithrombotic level) [1]: ≥ 0.2 Anti-Xa U/ml
time over which absorption of LMWH was sustained [1]: 6 h
Substance: N-sulphated N,O-carboxymethyl chitosan [S-NOCC40]

intestinal absorption of LMWH [1]: limited
Substance: Reviparin [reference compound]

Substance: Sulphated Chitosan [S-SAN]
disruption of the tight junctions between Caco-2 epithelial cells [2]: able to effectively disrupt the tight junctions
